# Assay results: patent publication US20170008888A1 (KYORIN PHARMACEUTICAL CO., LTD., priority 2014, published 2017)
# What was measured:
# ERK5 = molecular target: T1, ERK5 (Homo sapiens, UniProt Q13164); test: Probe-based (AX9989 acyl phosphate ATP probe) kinase profiling in Jurkat lysate: ERK5; assay type: binding; conditions: for IC50: calculated from percent inhibition of AX9989 labeling and the screening concentration, Jurkat lysate; for inhibition at 1 µM: screening concentration 1.0 μM; for inhibition at 1 µM / inhibition at 0.1 µM: read-out: Kinase inhibition % at indicated screening concentration: ERK5; for inhibition at 0.1 µM: screening concentration 0.1 μM
# T1 construct: screened for activity against several kinases in Jurkat cells; endogenous in cells; host or cells: Jurkat cell lysate
# T1 sequence (Q13164 whole entry): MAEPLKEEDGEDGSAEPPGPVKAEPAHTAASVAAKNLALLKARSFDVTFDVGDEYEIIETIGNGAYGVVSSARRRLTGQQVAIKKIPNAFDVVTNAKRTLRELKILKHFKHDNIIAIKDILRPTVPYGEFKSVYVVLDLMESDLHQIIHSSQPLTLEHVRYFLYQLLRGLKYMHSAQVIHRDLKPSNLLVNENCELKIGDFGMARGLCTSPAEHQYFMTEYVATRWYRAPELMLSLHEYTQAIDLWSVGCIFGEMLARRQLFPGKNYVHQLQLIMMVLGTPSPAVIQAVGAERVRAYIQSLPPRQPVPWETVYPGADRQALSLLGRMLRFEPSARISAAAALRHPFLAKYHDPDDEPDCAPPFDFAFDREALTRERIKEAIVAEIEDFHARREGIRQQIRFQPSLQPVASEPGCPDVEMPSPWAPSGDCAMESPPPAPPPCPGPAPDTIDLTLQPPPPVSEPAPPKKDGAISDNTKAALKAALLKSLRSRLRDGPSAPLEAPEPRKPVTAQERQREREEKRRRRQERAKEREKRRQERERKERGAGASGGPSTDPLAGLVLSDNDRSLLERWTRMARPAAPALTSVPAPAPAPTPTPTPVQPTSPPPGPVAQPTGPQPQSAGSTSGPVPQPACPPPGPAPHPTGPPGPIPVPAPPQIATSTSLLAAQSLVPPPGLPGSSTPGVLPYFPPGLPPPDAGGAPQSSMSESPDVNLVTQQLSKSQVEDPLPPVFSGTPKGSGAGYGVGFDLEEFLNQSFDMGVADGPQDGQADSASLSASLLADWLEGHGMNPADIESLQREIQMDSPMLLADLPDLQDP
# Procedure, shortened: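 Gel-filtered Jurkat lysate (5 mg/ml, 20 mM MnCl2) preincubated 15 min at room temperature with compound, then labelled with 5 μM AX9989 acyl phosphate ATP probe. Probe-labelled ERK5 active-site peptides quantified by LC/MS after trypsin digestion and streptavidin capture; IC50 calculated from percent inhibition at the screening concentration.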
# JAK1 = molecular target: T2, JAK1 (Homo sapiens, UniProt P23458); test: Probe-based (AX9989) kinase profiling in Jurkat lysate: JAK1; assay type: binding; conditions: read-out: Kinase inhibition % at indicated screening concentration: JAK1; for inhibition at 1 µM: screening concentration 1.0 μM; for inhibition at 0.1 µM: screening concentration 0.1 μM
# T2 construct: screened for activity against several kinases in Jurkat cells; endogenous in cells; host or cells: Jurkat cell lysate
# T2 sequence (P23458 whole entry): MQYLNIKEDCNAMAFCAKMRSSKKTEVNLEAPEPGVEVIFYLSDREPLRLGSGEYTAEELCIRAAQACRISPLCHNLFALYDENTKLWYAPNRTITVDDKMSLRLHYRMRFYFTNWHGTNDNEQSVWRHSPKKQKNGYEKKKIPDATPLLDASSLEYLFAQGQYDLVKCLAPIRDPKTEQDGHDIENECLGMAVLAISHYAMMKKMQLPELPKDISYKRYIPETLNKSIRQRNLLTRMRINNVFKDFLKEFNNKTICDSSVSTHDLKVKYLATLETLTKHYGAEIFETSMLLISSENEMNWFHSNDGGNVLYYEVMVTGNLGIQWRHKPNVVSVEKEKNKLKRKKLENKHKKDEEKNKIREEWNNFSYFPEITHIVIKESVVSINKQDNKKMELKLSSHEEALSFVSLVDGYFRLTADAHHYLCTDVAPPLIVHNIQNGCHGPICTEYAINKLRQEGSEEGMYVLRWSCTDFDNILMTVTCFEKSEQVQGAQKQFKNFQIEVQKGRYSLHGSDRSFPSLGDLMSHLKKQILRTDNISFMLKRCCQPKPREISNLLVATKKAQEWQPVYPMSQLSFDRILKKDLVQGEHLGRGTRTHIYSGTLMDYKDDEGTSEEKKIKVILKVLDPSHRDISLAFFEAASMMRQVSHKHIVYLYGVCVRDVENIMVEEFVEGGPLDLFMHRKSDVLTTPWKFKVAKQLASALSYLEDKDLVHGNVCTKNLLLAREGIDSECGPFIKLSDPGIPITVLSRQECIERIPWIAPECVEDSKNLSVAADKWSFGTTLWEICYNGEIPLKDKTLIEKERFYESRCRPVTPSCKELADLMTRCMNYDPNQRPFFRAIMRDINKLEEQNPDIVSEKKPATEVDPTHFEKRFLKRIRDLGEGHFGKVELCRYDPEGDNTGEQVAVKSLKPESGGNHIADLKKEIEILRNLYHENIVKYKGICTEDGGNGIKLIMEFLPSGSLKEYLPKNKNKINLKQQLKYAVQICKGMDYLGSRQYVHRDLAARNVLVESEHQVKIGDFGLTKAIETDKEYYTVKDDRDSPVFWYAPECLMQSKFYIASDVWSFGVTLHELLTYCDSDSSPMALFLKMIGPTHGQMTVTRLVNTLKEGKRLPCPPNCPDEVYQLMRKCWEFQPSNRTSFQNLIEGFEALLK
# Procedure, shortened: (§1)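 Compounds were pre-incubated for 15 min at room temperature with gel-filtered Jurkat cell lysate supplemented with 20 mM MnCl2, after which the acyl phosphate ATP probe AX9989 was added at 5 μM final. Labeled active-site peptides were enriched after tryptic digestion and measured by LC/MS, with percent inhibition taken relative to samples without compound.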
# ACK = molecular target: T3, ACK (Homo sapiens, UniProt Q07912); test: Probe-based (AX9989) kinase profiling in Jurkat lysate: ACK; assay type: binding; conditions: read-out: Kinase inhibition % at indicated screening concentration: ACK; for inhibition at 1 µM: screening concentration 1.0 μM; for inhibition at 0.1 µM: screening concentration 0.1 μM
# T3 construct: screened for activity against several kinases in Jurkat cells; endogenous in cells; host or cells: Jurkat cell lysate
# T3 sequence (Q07912 whole entry): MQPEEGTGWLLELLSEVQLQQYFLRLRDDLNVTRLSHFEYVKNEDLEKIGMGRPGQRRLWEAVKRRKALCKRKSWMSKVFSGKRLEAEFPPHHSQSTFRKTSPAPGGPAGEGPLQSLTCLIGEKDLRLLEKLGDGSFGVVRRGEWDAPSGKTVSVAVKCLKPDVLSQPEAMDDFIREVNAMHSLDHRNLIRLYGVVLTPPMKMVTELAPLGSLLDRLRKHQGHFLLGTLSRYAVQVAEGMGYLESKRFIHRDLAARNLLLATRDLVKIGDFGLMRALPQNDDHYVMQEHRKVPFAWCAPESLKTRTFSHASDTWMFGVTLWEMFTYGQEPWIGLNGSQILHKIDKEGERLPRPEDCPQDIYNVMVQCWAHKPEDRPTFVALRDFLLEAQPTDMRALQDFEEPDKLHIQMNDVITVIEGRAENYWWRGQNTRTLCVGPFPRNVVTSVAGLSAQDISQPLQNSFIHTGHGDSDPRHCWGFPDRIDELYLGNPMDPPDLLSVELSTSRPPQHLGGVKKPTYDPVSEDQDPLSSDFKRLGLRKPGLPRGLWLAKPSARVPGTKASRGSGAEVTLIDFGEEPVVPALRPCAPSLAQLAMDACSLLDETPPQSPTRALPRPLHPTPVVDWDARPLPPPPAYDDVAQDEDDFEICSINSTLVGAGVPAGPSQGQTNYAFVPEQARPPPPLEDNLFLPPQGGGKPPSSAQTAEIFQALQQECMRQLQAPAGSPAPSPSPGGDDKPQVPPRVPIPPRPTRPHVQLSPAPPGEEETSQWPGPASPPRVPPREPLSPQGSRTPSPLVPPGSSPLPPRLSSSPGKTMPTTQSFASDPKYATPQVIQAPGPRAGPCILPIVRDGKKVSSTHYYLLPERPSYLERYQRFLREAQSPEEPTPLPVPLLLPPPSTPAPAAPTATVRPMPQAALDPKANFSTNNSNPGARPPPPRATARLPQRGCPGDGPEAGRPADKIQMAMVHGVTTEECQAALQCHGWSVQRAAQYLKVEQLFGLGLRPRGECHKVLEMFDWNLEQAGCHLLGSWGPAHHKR
# Procedure, shortened: as §1
# ABL or ARG = test: Probe-based (AX9989) kinase profiling in Jurkat lysate: ABL or ARG; assay type: binding
# Procedure, shortened: as §1
# human PBMCs = test: Human PBMC TNF-α response to endotoxin (ELISA); assay type: cell-based; conditions: 0.1 μg/ml LPS 16 h, read-out: EC50 for the inhibition of the human PBMC TNF-α response to endotoxin, ave. ± S.D.
# Procedure, shortened: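 PBMCs at 2e6 cells/ml in RPMI 1640 with 10% charcoal-dextran-treated FBS were pre-treated 1 h at 37 °C with compound (4-point 1:5 dilution from 10 μM). Stimulation with 0.1 μg/ml E. coli 0111:B4 LPS for 16 h; TNF-α measured by ELISA (A450) in 25-fold diluted supernatant.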
# [1] = molecular target: T4, BRD4 bromodomain domain I [BRD4(1)] (Homo sapiens, UniProt O60885); test: BRD4 bromodomain domain 1 inhibition assay (TR-FRET); assay type: binding; conditions: screening concentration 10 μM
# T4 construct: BRD4 bromodomain domain I [BRD4(1)]; purchased Cayman Chemicals
# Procedure, shortened: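 0.5% DMSO, in triplicate, using Cayman BRD4(1) TR-FRET protocol with slight modification. 670/620 nm ratio normalized to 10 μM JQ1, with DMSO control set as 0% inhibition.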
Compound,IC50 (ERK5) [nM],inhibition at 1 µM (ERK5) [%],inhibition at 1 µM (JAK1) [%],inhibition at 1 µM (ACK) [%],Kinase inhibition % at indicated screening concentration: ABL or ARG (ABL or ARG; screening concentration 1.0 μM),EC50 (human PBMCs) [nM],inhibition at 10 µM [1] [%],inhibition at 0.1 µM (ERK5) [%],inhibition at 0.1 µM (JAK1) [%],inhibition at 0.1 µM (ACK) [%],Kinase inhibition % at indicated screening concentration: ABL or ARG (ABL or ARG; screening concentration 0.1 μM)
CCOc1cc(C(=O)N2CC[C@H](N(C)C)C2)ccc1Nc1cc2c(cn1)N(C)C(=O)c1ccccc1N2C [Compound 75],≤ 50,> 90,≤ 35,≤ 35,E (E is ≦35%),610,> 85,–,–,–,–
CCOc1cc(C(=O)NCCO)ccc1Nc1cc2c(cn1)N(C)C(=O)c1ccccc1N2C [Compound 66],> 500,50 to 75,≤ 35,≤ 35,E (E is ≦35%),1330,< 70,–,–,–,–
COc1cc(NS(C)(=O)=O)ccc1Nc1cc2c(cn1)N(C)C(=O)c1ccccc1N2C [Compound 73],101 to 500,75 to 90,≤ 35,≤ 35,E (E is ≦35%),1840,< 70,–,–,–,–
CCOc1cc(C(=O)N2CCCNCC2)ccc1Nc1cc2c(cn1)N(C)C(=O)c1ccccc1N2C [Compound 71],≤ 50,> 90,≤ 35,≤ 35,E (E is ≦35%),780,> 85,–,–,–,–
CCOc1cc(C(=O)N(C)CCN(C)C)ccc1Nc1cc2c(cn1)N(C)C(=O)c1ccccc1N2C [Compound 88],≤ 50,–,–,–,–,600,> 85,> 90,≤ 35,≤ 35,E (E is ≦35%)
CCOc1cc(C(=O)N2CCN(CC)CC2)ccc1Nc1cc2c(cn1)N(C)C(=O)c1ccccc1N2C [Compound 108],≤ 50,> 90,≤ 35,≤ 35,E (E is ≦35%),700,70 to 85,–,–,–,–
Cc1cc(CN2CC[C@@H](N3CCCC3)C2)ccc1Nc1cc2c(cn1)N(C)C(=O)c1ccccc1N2C [Compound 49],≤ 50,–,–,–,–,1510,> 85,> 90,≤ 35,≤ 35,E (E is ≦35%)
CCOc1cc(C(=O)N2CCC(OC)CC2)ccc1Nc1cc2c(cn1)N(C)C(=O)c1ccccc1N2C [Compound 63],50 to 100,> 90,≤ 35,≤ 35,E (E is ≦35%),870,70 to 85,–,–,–,–
CCOc1cc(C(=O)NCCc2ccncc2)ccc1Nc1cc2c(cn1)N(C)C(=O)c1ccccc1N2C [Compound 107],> 500,50 to 75,≤ 35,≤ 35,E (E is ≦35%),1310,< 70,–,–,–,–
CCOc1cc(C(=O)N2CCC(N3CCN(C)CC3)CC2)ccc1Nc1cc2c(cn1)N(C)C(=O)c1ccccc1N2C [Compound 61],50 to 100,> 90,≤ 35,≤ 35,E (E is ≦35%),890 ± 290,> 85,–,–,–,–
